Key:
HIV-1 IIIB = test: microbe, parasite or virus in culture; type: cell-based; settings: for EC50: Table 3, against HIV-1 IIIB virus, read-out: EC50; for inhibition activity (anti-HIV): in up to 50 μM concentrations
Description: Inhibition of HIV-1 cell replication was tested using the cMAGI assay, which is based on the ability of HIV-1 TAT to transactivate the expression of an integrated β-galactosidase reporter gene driven by the HIV-LTR (B. Chackeria et al., J. Virol., (1997) 71, 3932; Collins et al., Nat. Med. (2000) 6, 475). The β-galactosidase reporter is modified to remain localized in the nucleus where it can be detected with the X-gal (5-bromo-4-chloro-3indoyl-β-D-galactopyranoside) substrate as an intense nuclear stain within a few days of infection.
(§1) HIV-1 isolates were propagated by subculture in MT2 cells (Litovchick et al. (2001) supra). Aliquots of cell-free culture supernatants were used as viral inoculum. PAACs were dissolved in the RPMI 1640 medium. Cytotoxicity determinations were carried out in MT2 cells by trypan blue exclusion assay. Viral inhibition was determined by incubating MT2 or cMAGI HIV-1 reporter cells with 0.2-0.5 multiplicity of infection of HIV-1 wild type or resistant virus for 4 days at 37° C. in the presence or absence of various concentrations of pAACs. HIV-1 infection of cMAGI cells was determined by counting the number of HIV-1-infected cells (stained blue). The cytopathic effects of the viral infection of MT2 cells were also analyzed by microscopic assessment of syncytium formation.

in vitro = type: cell-based; settings: human, MT2 cells; Table 3; trypan blue exclusion; read-out: Cytotoxicity
Description: Cytotoxicity of the various pAACs was determined using the trypan blue exclusion assay. In brief, a sample of the cell suspension was diluted 1:1 (v/v) with 0.4% trypan blue and the cells were counted using a hemocytometer. Results are expressed as the percentage of dead cells.
as §1

CXCR4 = biological target: T1, CXCR4 (Homo sapiens, UniProt P61073); test: Competition with 12G5 mAb binding to CXCR4 on MT2 cells (flow cytometry)
T1 construct: incubated at 4° C. with anti-CXCR4 mAb, 12G5, conjugated to phycoerithrine (PE); endogenous in cells; host or cells: MT2 cells
Description: Interaction of pAACs and arginine peptides with CXCR4 coreceptor: Interactions of pAACs and arginine-peptides with CXCR4 were determined by flow cytometry (FACS-Scan, Becton Dickinson) as previously described (Litovich (2001) supra). In brief, 0.5×10^6 MT2 cells were washed with ice-cold PBS containing 0.1% sodium azide (wash buffer) and were incubated at 4° C. with anti-CXCR4 mAb, 12G5, conjugated to phycoerithrine (PE), in the absence or presence of different concentrations of pAACs and arginine peptides. After 30 minutes of incubation, the cells were washed with ice-cold wash buffer and fixed in PBS containing 1% paraformaldehyde. Non-specific fluorescence was assessed using an isotype control. For each sample 10,000 events were acquired. Data were analyzed and processed using CellQuest™ software (Becton Dickinson).

T1 sequence (P61073 whole entry): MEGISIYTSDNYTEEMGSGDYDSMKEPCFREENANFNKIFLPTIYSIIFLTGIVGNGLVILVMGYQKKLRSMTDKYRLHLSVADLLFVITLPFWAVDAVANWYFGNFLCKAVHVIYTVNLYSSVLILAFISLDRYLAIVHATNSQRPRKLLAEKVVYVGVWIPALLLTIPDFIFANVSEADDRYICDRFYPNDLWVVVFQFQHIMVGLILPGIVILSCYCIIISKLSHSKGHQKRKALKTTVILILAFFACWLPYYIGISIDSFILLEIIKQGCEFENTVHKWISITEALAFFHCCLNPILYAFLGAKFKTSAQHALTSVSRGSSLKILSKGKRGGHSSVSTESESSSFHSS

Compound | EC50 (HIV-1 IIIB) [µM] | inhibition activity (anti-HIV) (HIV-1 IIIB) | CC50 (in vitro) [µM] | inhibition at 80 µM (CXCR4; read-out: % Inhibition of 12G5 mAb binding to CXCR4, 80 μM) [%] | inhibition at 20 µM (CXCR4; read-out: % Inhibition of 12G5 mAb binding to CXCR4, 20 μM) [%]
N=C(N)NCCC[C@H](NC(=O)[C@H](CCCNC(=N)N)NC(=O)[C@H](CCCNC(=N)N)NC(=O)[C@H](CCCNC(=N)N)NC(=O)[C@H](CCCNC(=N)N)NC(=O)[C@@H](N)CCCNC(=N)N)C(=O)O [Compound 1, L-Arg-6mer-NH2] | 110 | no inhibition activity |  |  | 
N=C(N)NCCC[C@H](NC(=O)[C@@H](N)CCCNC(=N)N)C(=O)NCC1OC(OC2C(N)CC(N)C(O)C2O)C(N)C(O)C1O (stereo partly drawn) [Compound 21, L-Arg-2-mer-neamine] | ~46 |  |  |  | 
N=C(N)NCCC[C@H](NC(=O)[C@H](CCCNC(=N)N)NC(=O)[C@H](CCCNC(=N)N)NC(=O)[C@H](CCCNC(=N)N)NC(=O)[C@H](CCCNC(=N)N)NC(=O)[C@H](CCCNC(=N)N)NC(=O)[C@H](CCCNC(=N)N)NC(=O)[C@H](CCCNC(=N)N)NC(=O)[C@@H](N)CCCNC(=N)N)C(=O)NC[C@@H]1O[C@H](O[C@H]2[C@@H](O)[C@H](O[C@@H]3[C@@H](O)[C@H](N)C[C@H](N)[C@H]3O[C@H]3O[C@H](CO)[C@@H](O)[C@H](O)[C@H]3N)O[C@@H]2CO)[C@H](N)[C@@H](O)[C@@H]1O [Compound 7, L-Arg-9-mer-paromomycin] | 31 ± 9 |  | 140 |  | 
N=C(N)NCCCC(N)C(=O)NC(CCCNC(=N)N)C(=O)NC(CCCNC(=N)N)C(=O)NC(CCCNC(=N)N)C(=O)NC(CCCNC(=N)N)C(=O)NC(CCCNC(=N)N)C(=O)NC(CCCNC(=N)N)C(=O)NC(CCCNC(=N)N)C(=O)NC(CCCNC(=N)N)C(=O)NC[C@H]1O[C@H](O[C@H]2[C@H](O)[C@@H](O)[C@H](N)C[C@@H]2N)[C@H](N)[C@@H](O)[C@@H]1O (stereo partly drawn) [Compound 16, D/L-Arg-9-mer-neamine] |  |  | 160 |  | 
NC[C@H]1O[C@H](O[C@H]2[C@H](O)[C@@H](O)[C@H](N)C[C@@H]2N)[C@H](N)[C@@H](O)[C@@H]1O [neamine, Neamine, reference compound] |  | no inhibition activity |  |  | 
N=C(N)NCCC[C@H](NC(=O)[C@H](CCCNC(=N)N)NC(=O)[C@H](CCCNC(=N)N)NC(=O)[C@H](CCCNC(=N)N)NC(=O)[C@H](CCCNC(=N)N)NC(=O)[C@H](CCCNC(=N)N)NC(=O)[C@H](CCCNC(=N)N)NC(=O)[C@H](CCCNC(=N)N)NC(=O)[C@@H](N)CCCNC(=N)N)C(=O)NC[C@H]1O[C@H](O[C@H]2[C@H](O)[C@@H](O)[C@H](N)C[C@@H]2N)[C@H](N)[C@@H](O)[C@@H]1O [Compound 6, L-Arg-9-mer-neamine] | 37.5 ± 2.5 |  | 175 | 30.1 | 
N=C(N)NCCC[C@H](NC(=O)[C@H](CCCNC(=N)N)NC(=O)[C@H](CCCNC(=N)N)NC(=O)[C@H](CCCNC(=N)N)NC(=O)[C@H](CCCNC(=N)N)NC(=O)[C@@H](N)CCCNC(=N)N)C(=O)NC[C@H]1O[C@H](O[C@H]2[C@H](O)[C@@H](O)[C@H](N)C[C@@H]2N)[C@H](N)[C@@H](O)[C@@H]1O [Compound 2, L-Arg-6-mer-neamine] | 70 ± 10 |  | 210 |  | 35.4
L-Arg-6-mer-neomycin [Compound 4] | 40 ± 12 |  |  |  | 
N=C(N)NCCC[C@H](NC(=O)[C@H](CCCNC(=N)N)NC(=O)[C@H](CCCNC(=N)N)NC(=O)[C@H](CCCNC(=N)N)NC(=O)[C@H](CCCNC(=N)N)NC(=O)[C@@H](N)CCCNC(=N)N)C(=O)NC[C@@H]1O[C@H](O[C@H]2[C@@H](O)[C@H](O[C@@H]3[C@@H](O)[C@H](N)C[C@H](N)[C@H]3O[C@H]3O[C@H](CO)[C@@H](O)[C@H](O)[C@H]3N)O[C@@H]2CO)[C@H](N)[C@@H](O)[C@@H]1O [Compound 3, L-Arg-6-mer-paromomycin] | 31 ± 10 |  | 160 |  | 

From patent US20060166867A1, “Novel conjugates of polysaccharides and uses thereof” (priority 2003, published 2006)
